In patent publication US11890288B2, “Sulfonamide or sulfinamide compound having effect of inducing BRD4 protein degradation and pharmaceutical use thereof” (MITSUBISHI TANABE PHARMA CORPORATION, priority 2020, dated 2024):
Read-outs that look alike come from different tables or passages of the source. Marks after values point to notes of the source that are not given here.

What was measured:
[1] = system: Human breast cancer MDA-MB-436 cells; assay: Cytotoxic action on MDA-MB-436 cells (WST-8, 96 hr); assay type: cell-based
Method: (§1) The cytotoxic action of the compound of the present invention against cancer cells that acquired resistance to conventional BRD4 protein degradation inducing agents was evaluated in vitro. In this experiment, ARV-771 (Proc Natl Acad Sci USA. volume 113, pages 7124-7129 (28 Jun. 2016)) and MZ1 (ACS Chem Biol. Volume 10, pages 1770-1777 (21 Aug. 2015)), in which a ligand for VHL and BRD4 protein inhibitor are linked, were used as a conventional BRD4 protein degradation inducing agent serving as a comparison control. Human breast cancer MDA-MB-436 cells and MDA-MB-436 cells that acquired resistance to conventional BRD4 protein degradation inducing agents (MDA-MB-436 w/o2 cells) were suspended in 10% FBS/RPMI1640, seeded in a 96 well plate and cultured at 5% CO2, 37° C. overnight. A test compound dissolved in DMSO was diluted with 10% FBS/RPMI1640 and added and the cells were further cultured for 96 hr. After culturing, the viable cell number was measured using a cell number measurement WST-8 kit (Kishida Chemical Co., Ltd.). As a control, the measurement was performed under conditions free of the test compound. The cytotoxic activity of the compound of the present invention against each cell is shown in IC50 value in Table 4. The IC50 value is a concentration of the compound showing 50% cell survival rate when the cell survival rate thereof under compound untreated condition is 100%. It was calculated from the straight line connecting the cell survival rate at two points enclosing the 50% cell survival rate and the compound concentration. In addition, the tolerance (fold) was calculated by dividing the IC50 value in MDA-MB-436 w/o2 cells by the IC50 value in MDA-MB-436 cells.

[2] = system: MDA-MB-436 w/o2 cells; assay: Cytotoxic action on MDA-MB-436 w/o2 cells that acquired resistance to conventional BRD4 degraders (WST-8, 96 hr); assay type: cell-based, human; conditions: for resistance: IC50 in MDA-MB-436 w/o2 cells divided by IC50 in MDA-MB-436 cells; for IC50: MDA-MB-436 w/o2 cells, 96 hr; for resistance of MDA-MB-436 w/o2 cells to the substance (in words): MDA-MB-436 w/o2 versus MDA-MB-436 cells
Method: as §1

[3] = target: T1, BRD4 protein (Homo sapiens (Human), UniProt O60885); assay: BRD4 protein degradation inducing action in MDA-MB-436 w/o2 cells (Western blot, 6 hr); assay type: cell-based; conditions: MDA-MB-436 w/o2 cell
Method: (§2) The BRD4 protein degradation inducing action of the compound of the present invention on the cancer cells that acquired resistance to conventional BRD4 protein degradation inducing agents was evaluated in vitro. In this experiment, ARV-771 and MZ1, in which a ligand for VHL and BRD4 protein inhibitor are linked, were used as a conventional BRD4 protein degradation inducing agent serving as a comparison control. Human breast cancer MDA-MB-436 cells and MDA-MB-436 cells that acquired resistance to conventional BRD4 protein degradation inducing agents (MDA-MB-436 w/o2 cells) were suspended in 10% FBS/RPMI1640, seeded in a 6 well plate and cultured at 5% CO2, 37° C. overnight. A test compound dissolved in DMSO was diluted with 10% FBS/RPMI1640 and added and the cells were further cultured for 6 hr. After culturing, the cells were lysed in a solubilizing solution (10 mM Tris-HCl, pH 7.4, 0.1% NP-40, 0.1% sodium deoxycholate, 0.1% SDS, 0.15 M NaCl, 1 mM EDTA, 10 μg/mL aprotinin). The solution was electrophoresed and proteins in acrylamide gel were transferred to Immobilon PVDF membrane using a semi-dry transfer device. […] After immersing in a secondary antibody solution for 1 hr, the object protein on the membrane was detected using ECL Prime Western Blotting Detection System or ECL Select Western Blotting Detection System (GE Healthcare).

[4] = target: T1, BRD4 protein; assay: BRD4 protein degradation inducing action in MDA-MB-436 cells (Western blot, 6 hr); assay type: cell-based; conditions: MDA-MB-436 cell
Method: as §2

[5] = system: human prostate cancer LNCaP cells; assay: Cytotoxic action on LNCaP cells (WST-8, 96 hr); assay type: cell-based; conditions: 96 hr culture
Method in brief: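 IC50 values reflect 50% cell survival relative to untreated cells, interpolated linearly between the two concentrations that bracket it. Survival was read by WST-8 after 96 hr of compound treatment of cells grown in 10% FBS/RPMI1640 at 37° C.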

[6] = target: T1, BRD4 protein; assay: BRD4 protein degradation inducing action in LNCaP cells (immunofluorescence, 6 hr); assay type: cell-based; conditions: anti-BRD4 fluorescence intensity
Method in brief: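 Read-out is BRD4 immunofluorescence intensity (560/572 nm) after 6 hr compound treatment of LNCaP cells in 10% FBS/RPMI1640, with fixation, permeabilization and anti-BRD4 staining. Linear interpolation between the two concentrations flanking 50% of untreated intensity gives DC50.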

[7] = target: T1, BRD4 protein; assay: Inhibitory action on binding of BRD4 protein and acetylated histone H4 (TR-FRET); conditions: BRD4-1 (GST) and acetylated histone H4 peptide, 3 hr
Method: The inhibitory action of the compound of the present invention on the binding of BRD4 protein and a ligand thereof (acetylated histone H4) was evaluated by the time-resolved fluorescence resonance energy transfer (TR-FRET) method using EPIgeneous™ Binding Domain Kit A (Cisbio), BRD4-1 (GST) (Reaction Biology Corp) and [Lys(Ac)5/8/12/16]-Histone H4(1-21)-GGK (Biotin) (Eurogentec). In this experiment, (+)-JQ1 (Nature volume 468, pages 1067-1073 (23 Dec. 2010)) known to have an inhibitory activity on the binding of BRD4 protein and acetylated histone H4 therefor was used as a positive control drug. A test compound dissolved in DMSO was diluted with attached Diluent Buffer, added to a 384 well white plate, and BRD4-1 (GST) and [Lys(Ac)5/8/12/16]-Histone H4(1-21)-GGK (Biotin) were further added. Thereafter, Streptavidin-d2 conjugate and Anti-GST-Eu^3+ Cryptate Conjugate were added and the cells were incubated at room temperature for 3 hr. The binding amount of the BRD4 protein and acetylated histone H4 was measured as the fluorescence intensity (excitation: 314 nm/emission: 620 nm and excitation: 314 nm/emission: 665 nm). […] It was calculated from the straight line connecting the degradation rate at two points enclosing the 50% fluorescence intensity and the compound concentration.

[8] = system: human acute myeloid leukemia MV-4-11 cell transplanted mouse; assay: Antitumor effect of 1 week intermittent administration to MV-4-11 cell transplanted mouse (tail vein, days 1 and 8); assay type: in vivo; conditions: tumor weight on day 15
Method: The in vivo antitumor effect of the compound of the present invention was studied using human acute myeloid leukemia MV-4-11 cell transplanted mouse. MV-4-11 cells were subcutaneously transplanted into the inguinal region of male, 6-week-old BALB/c nude mouse (5×10^6 cells/mouse). The compound of the present invention was administered into the tail vein on days 1 and 8 from the time point when the assumed tumor volume determined from ½ab^2 (a is major axis and b is minor axis of tumor) reached about 200 mm^3 (day 1). The control group was administered with a solvent, 10% Kolliphor ELP/5% ethanol/85% saline solution. On day 15, the tumor was isolated, the weight was measured, and the tumor growth inhibitory rate IR (%) was calculated by the following formula. tumor growth inhibitory rate IR (%)={1−(average tumor weight of administration group/average tumor weight of nonadministration control group)}×100(%)

SMILES | IC50 [1] | resistance [2] | IC50 [2] | resistance of MDA-MB-436 w/o2 cells to the substance (in words) [2] | degradation of BRD4 protein (Western blot, FIG. 1) [3] | degradation of BRD4 protein (Western blot, FIG. 1) [4] | IC50 ([1]; Homo sapiens) | IC50 ([2]; Homo sapiens) | IC50 [5] | DC50 [6] | IC50 [7] | tumor growth inhibitory rate ([8]; 4 mg/kg/day) | tumor growth inhibitory rate ([8]; 12.5 mg/kg/day)
Cc1ncsc1-c1ccc([C@H](C)NC(=O)[C@@H]2C[C@@H](O)CN2C(=O)[C@@H](NC(=O)COCCCOCCNC(=O)C[C@@H]2N=C(c3ccc(Cl)cc3)c3c(sc(C)c3C)-n3c(C)nnc32)C(C)(C)C)cc1 [ARV-771, reference compound] | 5.6 nM | 150 fold | 860 nM | showed resistance | did not induce degradation | induced degradation of BRD4 protein |  |  |  |  |  |  | 
COC(=O)C[C@@H]1N=C(c2ccc(-c3ccc(C(=O)NCCc4ccc(S(=O)(=O)Nc5ccc(C)c6c(C#N)c[nH]c56)cc4)cc3)cc2)c2c(sc(C)c2C)-n2c(C)nnc21 [Example 11, methyl [(6S)-4-{4′-[(2-{4-[(3-cyano-4-methyl-1H-indol-7-yl)sulfamoyl]phenyl}ethyl)carbamoyl][1,1′-biphenyl]-4-yl}-2,3,9-trimethyl-6H-thieno[3,2-f][1,2,4]triazolo[4,3-a][1,4]diazepin-6-yl]acetate] |  | 1.2 fold |  |  |  |  | 0.27 nM | 0.31 nM | 0.074 nM | 0.083 nM | 5.7 nM |  | 
CCc1ccc(NS(=O)(=O)c2ccc(CNC(=O)c3ccc(-c4ccc(C5=N[C@@H](CC(=O)OC)c6nnc(C)n6-c6sc(C)c(C)c65)cc4)cc3)cc2)c2[nH]cc(C#N)c12 [Example 43, methyl [(6S)-4-{4′-[({4-[(3-cyano-4-ethyl-1H-indol-7-yl)sulfamoyl]phenyl}methyl)carbamoyl][1,1′-biphenyl]-4-yl}-2,3,9-trimethyl-6H-thieno[3,2-f][1,2,4]triazolo[4,3-a][1,4]diazepin-6-yl]acetate] |  | 1.3 fold |  |  |  |  | 0.34 nM | 0.42 nM | 0.23 nM | 0.12 nM |  |  | 
COC(=O)C[C@@H]1N=C(c2ccc(-c3ccc(C(=O)NCCc4ccc(S(=O)(=O)Nc5ccc(C)c6c(C#N)c[nH]c56)cc4)cc3F)cc2)c2c(sc(C)c2C)-n2c(C)nnc21 [Example 46, methyl [(6S)-4-{4′-[(2-{4-[(3-cyano-4-methyl-1H-indol-7-yl)sulfamoyl]phenyl}ethyl)carbamoyl]-2′-fluoro[1,1′-biphenyl]-4-yl}-2,3,9-trimethyl-6H-thieno[3,2-f][1,2,4]triazolo[4,3-a][1,4]diazepin-6-yl]acetate] |  | 1.3 fold |  |  |  |  | 0.2 nM | 0.26 nM | 0.19 nM | 0.11 nM |  |  | 
COC(=O)C[C@@H]1N=C(c2ccc(-c3ccc(C(=O)NCc4ccc(S(=O)(=O)Nc5ccc(C)c6c(C#N)c[nH]c56)cc4)nc3)cc2)c2c(sc(C)c2C)-n2c(C)nnc21 [Example 53, methyl [(6S)-4-(4-{6-[({4-[(3-cyano-4-methyl-1H-indol-7-yl)sulfamoyl]phenyl}methyl)carbamoyl]pyridin-3-yl}phenyl)-2,3,9-trimethyl-6H-thieno[3,2-f][1,2,4]triazolo[4,3-a][1,4]diazepin-6-yl]acetate] |  | 1.5 fold |  |  |  |  | 0.21 nM | 0.32 nM | 0.16 nM | 0.078 nM |  |  | 
CCc1ccc(NS(=O)(=O)c2ccc([C@@H](C)NC(=O)c3cnc(-c4ccc(C5=N[C@@H](CC(=O)OC)c6nnc(C)n6-c6sc(C)c(C)c65)cc4)cn3)cc2)c2[nH]cc(C#N)c12 [Example 106, methyl {(6S)-4-[4-(5-{[(1R)-1-{4-[(3-cyano-4-ethyl-1H-indol-7-yl)sulfamoyl]phenyl}ethyl]carbamoyl}pyrazin-2-yl)phenyl]-2,3,9-trimethyl-6H-thieno[3,2-f][1,2,4]triazolo[4,3-a][1,4]diazepin-6-yl}acetate] |  |  |  |  |  |  |  |  | 0.079 nM | 0.059 nM |  | 96** % | 98** %
Cc1ncsc1-c1ccc(CNC(=O)[C@@H]2C[C@@H](O)CN2C(=O)[C@@H](NC(=O)COCCOCCOCCNC(=O)C[C@@H]2N=C(c3ccc(Cl)cc3)c3c(sc(C)c3C)-n3c(C)nnc32)C(C)(C)C)cc1 [MZ1, reference compound] | 1900 nM | >26 fold | > 50000 nM | showed resistance | did not induce degradation | induced degradation of BRD4 protein |  |  |  |  |  |  | 
